Measurements from US9629363B2, “Pesticidal compositions and processes related thereto” (Dow AgroSciences LLC, priority 2012, dated 2017).

Tests used:
[1] = tested on: Beet Armyworm (BAW) (Spodoptera exigua); test: Bioassay on beet armyworm (BAW), 128-well diet tray assay; type: in vivo; settings: for BAW Rating: percent mortality of second instar larvae, 50 μg/cm^2 on artificial diet, five to seven days, 25° C.; for pest or weed control at 50 µg/cm2: Spodoptera exigua, Table 3B, beet armyworm, 128-well diet tray assay, read-out: BAW Rating
Method: (§1) Certain molecules disclosed in this document were tested against BAW and CEW and CL using procedures described in the following examples. In the reporting of the results, the “BAW & CEW & CL Rating Table” was used (See Table Section).
Bioassays on BAW were conducted using a 128-well diet tray assay. one to five second instar BAW larvae were placed in each well (3 mL) of the diet tray that had been previously filled with 1 mL of artificial diet to which 50 μg/cm^2 of the test compound (dissolved in 50 μL of 90:10 acetone-water mixture) had been applied (to each of eight wells) and then allowed to dry. Trays were covered with a clear self-adhesive cover, and held at 25° C., 14:10 light-dark for five to seven days. Percent mortality was recorded for the larvae in each well; activity in the eight wells was then averaged. The results are indicated in the table entitled “Table 3: Assay Results” (See Table Section).

[2] = tested on: Cabbage Looper (CL) (Trichoplusia ni); test: Bioassay on cabbage looper (CL), 128-well diet tray assay; type: in vivo; settings: Table 3B, read-out: CL Rating
Method: as §1
Bioassays on CL were conducted using a 128-well diet tray assay. One to five second instar CL larvae were placed in each well (3 mL) of the diet tray that had been previously filled with 1 mL of artificial diet to which 50 μg/cm^2 of the test compound (dissolved in 50 μL of 90:10 acetone-water mixture) had been applied (to each of eight wells) and then allowed to dry. Trays were covered with a clear self-adhesive cover, and held at 25° C., 14:10 light-dark for five to seven days. Percent mortality was recorded for the larvae in each well; activity in the eight wells was then averaged. The results are indicated in the table entitled “Table 3A: Assay Results” (See Table Section).

SMILES	BAW Rating [1]	pest or weed control at 50 µg/cm2 [2] [%]	pest or weed control at 50 µg/cm2 [1] [%]
N#CCN1CCC(NC(=O)c2ccc(/C=C/C(c3cc(Cl)c(Cl)c(Cl)c3)C(F)(F)F)cc2Br)CC1 (stereo not drawn) [AC107]	B (More than 0-Less than 50)	–	–
O=C(NC1CCN(C2COC2)CC1)c1ccc(/C=C/C(c2cc(Cl)c(Cl)c(Cl)c2)C(F)(F)F)cc1Br (stereo not drawn) [AC108, (E)-2-Bromo-N-(1-(oxetan-3-yl)piperidin-4-yl)-4-(4,4,4-trifluoro-3-(3,4,5-trichlorophenyl)but-1-en-1-yl)benzamide]	B (More than 0-Less than 50)	–	–
O=C(NCCc1ccc(Cl)nc1)c1ccc(/C=C/C(c2cc(Cl)c(Cl)c(Cl)c2)C(F)(F)F)cc1Br (stereo not drawn) [AC113]	B (More than 0-Less than 50)	–	–
CCNC(=O)NCc1ccc(/C=C/C(c2cc(Cl)cc(Cl)c2)C(F)(F)F)cc1Cl (stereo not drawn) [CC31, (E)-1-(2-Chloro-4-(3-(3,5-dichlorophenyl)-4,4,4-trifluorobut-1-en-1-yl)benzyl)-3-ethylurea]	B (More than 0-Less than 50)	–	–
FC(F)(F)C(/C=C/c1ccc(-n2cncn2)cc1)c1ccccc1 (stereo not drawn) [DC3]	B (More than 0-Less than 50)	–	–
CN(NC(=O)c1ccc(/C=C/C(c2cc(Cl)c(Cl)c(Cl)c2)C(F)(F)F)cc1Br)C(=O)CCC(F)(F)F (stereo not drawn) [FA1]	–	50 to 100	50 to 100
CN(NC(=O)c1ccc(/C=C/C(c2cc(Cl)c(Cl)c(Cl)c2)C(F)(F)F)cc1Br)C(=O)CC(F)(F)F (stereo not drawn) [FA2]	–	50 to 100	50 to 100
CN(NC(=O)c1ccc(/C=C/C(c2cc(Cl)c(Cl)c(Cl)c2)C(F)(F)F)cc1C(F)(F)F)C(=O)C1CC1 (stereo not drawn) [FA3]	–	50 to 100	50 to 100
CCC(=O)N(C)NC(=O)c1ccc(/C=C/C(c2cc(Cl)c(Cl)c(Cl)c2)C(F)(F)F)cc1C (stereo not drawn) [FA4]	–	50 to 100	50 to 100
Cc1cc(/C=C/C(c2cc(Cl)c(Cl)c(Cl)c2)C(F)(F)F)ccc1C(=O)NN(C)C(=O)C1CC1 (stereo not drawn) [FA5]	–	50 to 100	50 to 100
Cc1cc(/C=C/C(c2cc(Cl)c(Cl)c(Cl)c2)C(F)(F)F)ccc1C(=O)NN(C)C(=O)CCC(F)(F)F (stereo not drawn) [FA6]	–	50 to 100	50 to 100
O=C(CC(F)(F)F)NCCNC(=O)c1ccc(/C=C/C(c2cc(Cl)c(Cl)c(Cl)c2)C(F)(F)F)cc1C(F)(F)F (stereo not drawn) [FA7]	–	50 to 100	50 to 100
CC(C)(CNC(=O)c1ccc(/C=C/C(c2cc(Cl)c(Cl)c(Cl)c2)C(F)(F)F)cc1C(F)(F)F)NC(=O)CC(F)(F)F (stereo not drawn) [FA8]	–	50 to 100	50 to 100
CC(C)(CNC(=O)c1ccc(/C=C/C(c2cc(Cl)c(Cl)c(Cl)c2)C(F)(F)F)cc1C(F)(F)F)NC(=O)C(F)(F)F (stereo not drawn) [FA9]	–	0 to 50	–
O=C(NCCNC(=O)C(F)(F)F)c1ccc(/C=C/C(c2cc(Cl)c(Cl)c(Cl)c2)C(F)(F)F)cc1C(F)(F)F (stereo not drawn) [FA10]	–	50 to 100	50 to 100
CN(NC(=O)c1ccc(/C=C/C(c2cc(Cl)c(Cl)c(Cl)c2)C(F)(F)F)cc1C(F)(F)F)C(=O)C(F)(F)C(F)(F)C(F)(F)F (stereo not drawn) [FA11]	–	50 to 100	50 to 100
CCCC(=O)N(C)NC(=O)c1ccc(/C=C/C(c2cc(Cl)c(Cl)c(Cl)c2)C(F)(F)F)cc1C(F)(F)F (stereo not drawn) [FA12]	–	50 to 100	50 to 100
CN(NC(=O)c1ccc(/C=C/C(c2cc(Cl)c(Cl)c(Cl)c2)C(F)(F)F)cc1C(F)(F)F)C(=O)CCC(F)(F)F (stereo not drawn) [FA13]	–	50 to 100	50 to 100
O=C(CCC(F)(F)F)NNC(=O)c1ccc(/C=C/C(c2cc(Cl)c(Cl)c(Cl)c2)C(F)(F)F)cc1C(F)(F)F (stereo not drawn) [FA14]	–	50 to 100	50 to 100
CC(C)(CNC(=O)C(F)(F)F)NC(=O)c1ccc(/C=C/C(c2cc(Cl)c(Cl)c(Cl)c2)C(F)(F)F)cc1C(F)(F)F (stereo not drawn) [FA15]	–	50 to 100	50 to 100
CC(C)(CNC(=O)CC(F)(F)F)NC(=O)c1ccc(/C=C/C(c2cc(Cl)c(Cl)c(Cl)c2)C(F)(F)F)cc1C(F)(F)F (stereo not drawn) [FA16]	–	50 to 100	50 to 100
